pIC50: −log10 of the molar value. One block for each compound: values may come before it.
Key:
[1] = biological target: T1, Avi-KRAS G12R (1-169) GppNHp/RAF1 RBD-3xFLAG (52-151) (Homo sapiens, UniProt P01116, G12R); experiment: Raf1-KRAS G12R-GppNHP disruption HTRF assay (Biological Example 1); assay type: binding
T1 construct: Avi-KRAS G12R (1-169)
Method in brief: (§1)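 Using HTRF, the loss of KRAS–effector RAF1 complex was quantified in 50 mM Tris pH 7.5 buffer with 100 mM NaCl and 0.1% BSA. The protein step and reagent step ran 1 h each at room temperature. Activity normalized with DMSO taken as 100%.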

[2] = biological target: T2, Avi-KRAS G12D (1-169) GppNHp/RAF1 RBD-3xFLAG (52-151) (Homo sapiens, UniProt P01116, G12D); experiment: Raf1-KRAS G12D-GppNHP disruption HTRF assay (Biological Example 1); assay type: binding
T2 construct: Avi-KRAS G12D (1-169)
Method in brief: as §1

SW620 cells (KRAS G12V) = experiment: Cell-based pERK HTRF assay in SW620 cell (Biological Example 4); details: pERK HTRF
Protocol: A pERK assay (Perkin Elmer) was used to determine the effectiveness of compounds in disrupting KRAS G12V protein/effector signaling in cells.
On Day 1, cells (SW620) were seeded into 96-well plates at 3×10^4 cells/well in 80 μL complete growth media (RPMI, 10% FBS).
On Day 2, cells were treated with compounds at 0.25% DMSO. The source plate was created with compounds diluted in media at 5-fold the final assay concentration. The compounds were run in a 9-point concentration curve starting at 1 μM, with a half-log dilution between concentrations. Twenty μL was transferred onto the cell plates (final volume in wells was 100 μL). Plates were harvested after 4 h incubation by aspirating media and adding kit-supplied 1x supplemented lysis buffer to all wells (50 μL per well). Plates were then placed on a plate shaker and incubated at 850 rpm for an additional 30 min.
Antibody mixture solution was prepared by diluting aliquoted d2 and Eu Cryptate antibodies 1:20 in kit supplied detection buffer and mixing the diluted antibodies solutions (1:1 v:v).
Samples were homogenized by pipetting up and down and then transferred (16 μL of cell lysates) from the 96-well cell culture plate to two wells of the HTRF 384-well detection plate containing the antibody solution. Plates were centrifuged (524 g for Imin) and allowed to incubate between 4 and 24 h at room temperature. […] Plates were centrifuged again (524 g for 1 min), then analyzed on the En Vision plate reader using the following settings: Excitation 320 nm, Bandwidth 75 nm; Emission 615 nm, Bandwidth 85 nm; Gain 100%; Flashes 100; Lag 60 μs.

[3] = biological target: T3, Avi-KRAS WT (1-169) GppNHp/RAF1 RBD-3xFLAG (52-151) (Homo sapiens, UniProt P01116); experiment: Raf1-KRAS WT-GppNHP disruption HTRF assay (Biological Example 1); assay type: binding
T3 construct: Avi-KRAS WT (1-169)
Method in brief: as §1

GP2d cells (KRAS G12D) = experiment: Cell-based pERK HTRF assay in GP2d cell (Biological Example 2); details: GP2d (KRAS G12D) cells, pERK HTRF
Method in brief: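 Cells grown in DMEM with 10% FBS were exposed to compound for 60 min at 0.25% DMSO, using a 9-point half-log series starting at 1 μM or 100 nM. Lysates were then mixed with d2 and Eu cryptate antibodies for 4–24 h at room temperature, and pERK was read by HTRF.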

[4] = biological target: T4, Avi-KRAS G12V (1-169) GppNHp/RAF1 RBD-3xFLAG (52-151) (Homo sapiens, UniProt P01116, G12V); experiment: Raf1-KRAS G12V-GppNHP disruption HTRF assay (Biological Example 1); assay type: binding
T4 construct: Avi-KRAS G12V (1-169)
Method in brief: as §1

[5] = Homo sapiens, SW-620, SW620 (KRAS G12V) cells

T3 sequence (P01116 1-169 isoform P01116-2): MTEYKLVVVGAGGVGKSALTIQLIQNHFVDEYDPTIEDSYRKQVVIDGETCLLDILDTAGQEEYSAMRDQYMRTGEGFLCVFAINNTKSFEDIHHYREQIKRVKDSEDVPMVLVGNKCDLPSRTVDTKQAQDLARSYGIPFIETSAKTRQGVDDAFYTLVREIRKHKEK
T1 sequence (P01116 1-169 isoform P01116-2 G12R): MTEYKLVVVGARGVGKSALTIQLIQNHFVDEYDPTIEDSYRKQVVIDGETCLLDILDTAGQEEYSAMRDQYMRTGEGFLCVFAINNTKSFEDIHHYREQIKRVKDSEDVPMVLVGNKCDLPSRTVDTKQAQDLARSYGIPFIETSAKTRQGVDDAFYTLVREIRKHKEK
T2 sequence (P01116 1-169 isoform P01116-2 G12D): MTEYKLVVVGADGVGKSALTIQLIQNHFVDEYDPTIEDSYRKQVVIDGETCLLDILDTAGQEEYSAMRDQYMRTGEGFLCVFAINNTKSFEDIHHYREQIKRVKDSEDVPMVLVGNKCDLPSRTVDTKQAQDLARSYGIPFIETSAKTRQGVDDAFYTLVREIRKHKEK
T4 sequence (P01116 1-169 isoform P01116-2 G12V): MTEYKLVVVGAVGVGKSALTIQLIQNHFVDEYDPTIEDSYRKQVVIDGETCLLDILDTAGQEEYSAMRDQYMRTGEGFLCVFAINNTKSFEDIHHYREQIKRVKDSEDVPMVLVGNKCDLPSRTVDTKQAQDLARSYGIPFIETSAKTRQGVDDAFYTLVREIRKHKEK

SMILES: CC(=O)N1C[C@H]2CCN(c3nc(OC[C@@]45CCCN4C[C@H](F)C5)nc4c(F)c(-c5ccc(F)c6sc(N)c(C#N)c56)c(C(F)(F)F)cc34)[C@H]2C1 [Compound 210]
pIC50 ([1]; KRAS G12R, GppNHp-loaded, Table 11): 5.00 to 6.00 | pIC50 ([2]; KRAS G12D, GppNHp-loaded, Table 11): 5.00 to 6.00 | pIC50 (SW620 cells (KRAS G12V); [5]): 6.00 to 7.00 | pIC50 ([3]; KRAS WT, GppNHp-loaded, Table 11): 6.00 to 7.00 | pIC50 (GP2d cells (KRAS G12D); GP2d): > 7.00 | pIC50 ([4]; KRAS G12V, GppNHp-loaded, Table 11): 6.00 to 7.00

SMILES: C[C@@H]1[C@H](N(C)c2nc(OC[C@@]34CCCN3C[C@H](F)C4)nc3c(F)c(-c4ccc(F)c5sc(N)c(C#N)c45)c(C(F)(F)F)cc23)CCN1C(=O)C(C)(C)F [Compound 424]
pIC50 ([1]; KRAS G12R-GppNHp/RAF1 RBD HTRF): 6.00 to 7.00 | pIC50 ([2]; KRAS G12D-GppNHp/RAF1 RBD HTRF): 6.00 to 7.00 | pIC50 (SW620 cells (KRAS G12V); [5]): 6.00 to 7.00 | pIC50 ([3]; KRAS WT-GppNHp/RAF1 RBD HTRF): 6.00 to 7.00 | pIC50 (GP2d cells (KRAS G12D); GP2d): > 7.00 | pIC50 ([4]; KRAS G12V-GppNHp/RAF1 RBD HTRF): 5.00 to 6.00

SMILES: CC(=O)N1CC[C@@H](N(C)c2nc(OC[C@@]34CCCN3C[C@H](F)C4)nc3c(F)c(-c4ccc(F)c5oc(N)c(C#N)c45)c(C(F)(F)F)cc23)[C@H]1C [Compound 326]
pIC50 ([1]; KRAS G12R-GppNHp/RAF1 RBD HTRF): 6.00 to 7.00 | pIC50 ([2]; KRAS G12D-GppNHp/RAF1 RBD HTRF): 6.00 to 7.00 | pIC50 (SW620 cells (KRAS G12V); [5]): 6.00 to 7.00 | pIC50 ([3]; KRAS WT-GppNHp/RAF1 RBD HTRF): 6.00 to 7.00 | pIC50 (GP2d cells (KRAS G12D); GP2d): > 7.00 | pIC50 ([4]; KRAS G12V-GppNHp/RAF1 RBD HTRF): 5.00 to 6.00

SMILES: N#Cc1c(N)sc2c(F)ccc(-c3c(C(F)(F)F)cc4c(N5C[C@H]6C[C@@H]5CO6)nc(OC[C@@]56CCCN5C[C@H](F)C6)nc4c3F)c12 (single isomer, unassigned) [Compound 288]
pIC50 ([1]; KRAS G12R-GppNHp/RAF1 RBD HTRF): < 5.00 | pIC50 ([2]; KRAS G12D-GppNHp/RAF1 RBD HTRF): < 5.00 | pIC50 (SW620 cells (KRAS G12V); SW620 (KRAS G12V) cells): 6.00 to 7.00 | pIC50 ([3]; KRAS WT-GppNHp/RAF1 RBD HTRF): < 5.00 | pIC50 (GP2d cells (KRAS G12D)): 6.00 to 7.00 | pIC50 ([4]; KRAS G12V-GppNHp/RAF1 RBD HTRF): < 5.00

Now from value to compound:

pIC50 ([1]; KRAS G12R-GppNHp/RAF1 RBD HTRF): 6.00 to 7.00 | pIC50 ([2]; KRAS G12D-GppNHp/RAF1 RBD HTRF): 6.00 to 7.00 | pIC50 (SW620 cells (KRAS G12V); [5]): > 7.00 | pIC50 ([3]; KRAS WT-GppNHp/RAF1 RBD HTRF): 6.00 to 7.00 | pIC50 (GP2d cells (KRAS G12D); GP2d): > 7.00 | pIC50 ([4]; KRAS G12V-GppNHp/RAF1 RBD HTRF): 6.00 to 7.00
SMILES: COC1C2CN(c3nc(OC[C@@]45CCCN4C[C@H](F)C5)nc4c(F)c(-c5ccc(F)c6sc(N)c(C#N)c56)c(C(F)(F)F)cc34)C1CO2 (stereo partly drawn) [Compound 509]

pIC50 ([1]; KRAS G12R, GppNHp-loaded, class symbols): 6.00 to 7.00 | pIC50 ([2]; KRAS G12D, GppNHp-loaded, class symbols): 6.00 to 7.00 | pIC50 (SW620 cells (KRAS G12V); Homo sapiens, SW-620, SW620 (KRAS G12V) cells, class symbols): > 7.00 | pIC50 ([3]; KRAS WT, GppNHp-loaded, class symbols): 6.00 to 7.00 | pIC50 (GP2d cells (KRAS G12D); GP2d, class symbols): > 7.00 | pIC50 ([4]; KRAS G12V, GppNHp-loaded, class symbols): 6.00 to 7.00
SMILES: CCN(c1nc(OC[C@@]23CCCN2C[C@H](F)C3)nc2c(F)c(-c3ccc(F)c4sc(N)c(C#N)c34)c(C(F)(F)F)cc12)[C@H]1C[C@@H](C)N(C(=O)[C@H](C)OC)C1 (atropisomer, axis not shown) [Compound 753]

pIC50 ([1]; KRAS G12R-GppNHp/RAF1 RBD HTRF): 6.00 to 7.00 | pIC50 ([2]; KRAS G12D-GppNHp/RAF1 RBD HTRF): 6.00 to 7.00 | pIC50 (SW620 cells (KRAS G12V); [5]): > 7.00 | pIC50 ([3]; KRAS WT-GppNHp/RAF1 RBD HTRF): 6.00 to 7.00 | pIC50 (GP2d cells (KRAS G12D); GP2d): > 7.00 | pIC50 ([4]; KRAS G12V-GppNHp/RAF1 RBD HTRF): 6.00 to 7.00
SMILES: CN(c1nc(OC[C@@]23CCCN2C[C@H](F)C3)nc2c(F)c(-c3ccc(F)c4sc(N)c(C#N)c34)c(C(F)(F)F)cc12)[C@H]1C[C@H](CF)N(C(=O)C2CC2)C1 [Compound 462]

pIC50 ([1]; KRAS G12R-GppNHp/RAF1 RBD HTRF): 6.00 to 7.00 | pIC50 ([2]; KRAS G12D-GppNHp/RAF1 RBD HTRF): 6.00 to 7.00 | pIC50 (SW620 cells (KRAS G12V); [5]): > 7.00 | pIC50 ([3]; KRAS WT-GppNHp/RAF1 RBD HTRF): 5.00 to 6.00 | pIC50 (GP2d cells (KRAS G12D); GP2d): > 7.00 | pIC50 ([4]; KRAS G12V-GppNHp/RAF1 RBD HTRF): 5.00 to 6.00
SMILES: N#Cc1c(N)sc2c(F)ccc(-c3c(C(F)(F)F)cc4c(N5CCc6oncc6C5)nc(OC[C@@]56CCCN5C[C@H](F)C6)nc4c3F)c12 [Compound 507]

pIC50 ([1]; KRAS G12R-GppNHp/RAF1 RBD HTRF): > 7.00 | pIC50 ([2]; KRAS G12D-GppNHp/RAF1 RBD HTRF): > 7.00 | pIC50 (SW620 cells (KRAS G12V); [5]): > 7.00 | pIC50 ([3]; KRAS WT-GppNHp/RAF1 RBD HTRF): > 7.00 | pIC50 (GP2d cells (KRAS G12D); GP2d): > 7.00 | pIC50 ([4]; KRAS G12V-GppNHp/RAF1 RBD HTRF): > 7.00
SMILES: CCN(c1nc(OC[C@@]23CCCN2C[C@H](F)C3)nc2c(F)c(-c3ccc(F)c4sc(N)c(C#N)c34)c(C(F)(F)F)cc12)[C@H]1CCN(C(=O)C(F)F)C1 (atropisomer, axis not shown) [Compound 547]

— US20260042764A1, “COMPOSITIONS AND METHODS FOR INHIBITION OF KRAS” (TheRas, Inc., priority 2022, published 2026)
